Source: patent US20240287025A1, “TETRAHYDROQUINOLINE (THQ) COUMPOUNDS” (Centre National de la Recherche Scientifique, priority 2021, published 2024)

Assays:
Brd4 BD1 = Brd4 BD1 (Homo sapiens (Human), UniProt O60885); experiment: HTRF evaluation of bromodomain inhibitors, Brd4 BD1; type: binding; conditions: H4ac4 peptide 50 nM, 4 h at 4° C.
Method: (§1) HTRF reagents and buffers were purchased from Cisbio Bioassays. The assay used a terbium (Ill) cryptate donor reagent conjugated to an anti-GST antibody (MAb anti-GST-Tb; GSTTLA), a streptavidin-conjugated acceptor reagent (streptavidin-d2) and Cisbio proprietary buffers (EPlgeneous Binding Domain Diluent and Detection buffer, respectively). GST-tagged bromodomains (BDs) were expressed in E. coli and purified using standard procedures. Incubation of GST-tagged BDs with biotinylated acetylated H4 peptide (H4K5acK8acK12acK16ac, here named H4ac4) brings the donor and acceptor into close proximity and allows for a FRET reaction. GST-tagged proteins in 25 mM Hepes pH 7.5, 150 mM NaCl, 0.5 mM DTT were assayed at a final concentration of 5 nM. Biotinylated H4ac4 peptides were used at a final concentration of 50, 600 nM in assays involving Brd4 BD1, Brd4 BD2, respectively. The antibody-conjugated donor was used at 0.5 nM and the streptavidin-conjugated acceptor was used at ⅛ of the H4ac4 peptide concentration. Inhibitors were tested by performing an eleven-point dilution series with a maximal final concentration of […]. These concentrations allowed a fixed DMSO concentration at 0.2%, critical for a Z′ factor ≥0.8. Components were incubated at 4° C. for 4 h (BD1) or for 24 h (BD2). Experiments were performed in 384-well white plates (Greiner ref. 781080) and analyzed in a ClarioStar plate reader (BMG LABTECH, excitation at 330 nm and emission at 620 and 665 nm, corresponding to the donor and acceptor emission peaks, respectively; the 665/620 ratio is used to calculate the specific HTRF signal) with an integration delay of 60 μs and an integration time of 400 μs.

Brd4 BD2 = Brd4 BD2 (Homo sapiens (Human), UniProt O60885); experiment: HTRF evaluation of bromodomain inhibitors, Brd4 BD2; type: binding; conditions: for IC50: HTRF, H4ac4 peptide 600 nM, 24 h at 4° C.; for Selectivity BD2/BD1: ratio of the BD1 and BD2 IC50
Method: as §1

Compound | IC50 (Brd4 BD1) [nM] | IC50 (Brd4 BD2) [nM] | Selectivity BD2/BD1 (Brd4 BD2)
CC[C@H]1[C@@H](C)C(n2cc(COCCOCCOCCOCCOCCOCc3cn(C4c5cc(C(=O)OC)ccc5N(C(C)=O)[C@@H](CC)[C@H]4C)nn3)nn2)c2cc(C(=O)OC)ccc2N1C(C)=O (stereo partly drawn) [XY, Dimethyl-4,4′-((2,5,8,11,14,17-hexaoxaoctadecane-1,18-diyl)bis(1H-1,2,3-triazole-4,1-diyl))(2S,2'S,3R,3′R,4S,4'S)-bis(1-acetyl-2-ethyl-3-methyl-1,2,3,4-tetrahydroquinoline-6-carboxylate)] | 1560 | 95 | 16.4
CC[C@H]1[C@@H](C)[C@H](n2cc(COCCOCCOCCOCCOCCOCC#Cc3cccc4c3CN(C3CCC(=O)NC3=O)C4=O)nn2)c2cc(C(=O)OC)ccc2N1C(C)=O (stereo partly drawn) [YG, Methyl-(2S,3R,4S)-1-acetyl-4-(4-(20-(2-(2,6-dioxopiperidin-3-yl)-1-oxoisoindolin-4-yl)-2,5,8,11,14,17-hexaoxaicos-19-yn-1-yl)-1H-1,2,3-triazol-1-yl)-2-ethyl-3-methyl-1,2,3,4-tetrahydroquinoline-6-carboxylate] | > 20000 | 1360 | 
C#CCOCCOCCOCCOCc1cn([C@@H]2c3cc(C(=O)OC)ccc3N(C(C)=O)[C@@H](CC)[C@H]2C)nn1 [XR, Methyl-(2S,3R,4S)-4-(4-(2,5,8,11-tetraoxatetradec-13-yn-1-yl)-1H-1,2,3-triazol-1-yl)-1-acetyl-2-ethyl-3-methyl-1,2,3,4-tetrahydroquinoline-6-carboxylate] | > 100000 | 2360 | 
CC[C@H]1[C@@H](C)[C@H](N=[N+]=[N-])c2cc(C(F)(F)F)ccc2N1C(C)=O [YB, 1-((2S,3R,4S)-4-azido-2-ethyl-3-methyl-6-(trifluoromethyl)-3,4-dihydroquinolin-1(2H)-yl)ethan-1-one] | 67000 | 7570 | 8.8
CC[C@H]1[C@@H](C)[C@H](n2cc(-c3ccc(OC)cc3)nn2)c2cc(C(=O)OC)ccc2N1C(C)=O [XM, Methyl (2S,3R,4S)-1-acetyl-2-ethyl-4-(4-(4-methoxyphenyl)-1H-1,2,3-triazol-1-yl)-3-methyl-1,2,3,4-tetrahydroquinoline-6-carboxylate] | 2980 | 563 | 5.3
CC[C@H]1[C@@H](C)[C@H](n2nnc3c2CCC2C(CO)C2CC3)c2cc(C(=O)OC)ccc2N1C(C)=O (stereo partly drawn) [YI, Methyl-(2S,3R,4S)-1-acetyl-2-ethyl-4-(6-(hydroxymethyl)-5,5a,6,6a,7,8-hexahydrocyclopropa[5,6]cycloocta[1,2-d][1,2,3]triazol-1(4H)-yl)-3-methyl-1,2,3,4-tetrahydroquinoline-6-carboxylate] | 33600 | 798 | 42.1
CC[C@H]1[C@@H](C)[C@H](n2cc(COCCOCC#Cc3cccc4c3CN(C3CCC(=O)NC3=O)C4=O)nn2)c2cc(C(=O)OC)ccc2N1C(C)=O (stereo partly drawn) [YE, Methyl-(2S,3R,4S)-1-acetyl-4-(4-((2-((3-(2-(2,6-dioxopiperidin-3-yl)-1-oxoisoindolin-4-yl)prop-2-yn-1-yl)oxy)ethoxy)methyl)-1H-1,2,3-triazol-1-yl)-2-ethyl-3-methyl-1,2,3,4-tetrahydroquinoline-6-carboxylate] | 7870 | 486 | 16.2
CC[C@H]1[C@H](C)[C@@H](n2cc(-c3ccccc3)nn2)c2cc(C(=O)OC)ccc2N1C(C)=O [Compound 31, Methyl-(2S,3S,4R)-1-acetyl-2-ethyl-3-methyl-4-(4-phenyl-1H-1,2,3-triazol-1-yl)-1,2,3,4-tetrahydroquinoline-6-carboxylate] | > 200000 | 14900 | 
CC[C@H]1[C@@H](C)[C@H](N=[N+]=[N-])c2cc(C(=O)OC)ccc2N1C(C)=O [Compound 27, Methyl-(2S,3R,4S)-1-acetyl-4-azido-2-ethyl-3-methyl-1,2,3,4-tetrahydroquinoline-6-carboxylate] | 17700 | 1880 | 9.4
CC[C@H]1[C@@H](C)[C@H](NC(=O)OC(C)C)c2cc(C(=O)OC)ccc2N1C(C)=O [XJ, Methyl-(2S,3S,4S)-1-acetyl-2-ethyl-4-((isopropoxycarbonyl)amino)-3-methyl-1,2,3,4-tetrahydroquinoline-6-carboxylate] | 24200 | 1880 | 12.8
C=CCCCC(=O)Nc1ccc(-c2ccc3c(c2)[C@@H](n2cc(CCCCC)nn2)[C@H](C)[C@H](CC)N3C(C)=O)cc1 [XE, N-(4-((2S,3R,4S)-1-acetyl-2-ethyl-3-methyl-4-(4-pentyl-1H-1,2,3-triazol-1-yl)-1,2,3,4-tetrahydroquinolin-6-yl)phenyl)hex-5-enamide] | 4080 | 3180 | 1.3
C#CCOCCOCCOCCOCCOCCOCc1cn([C@@H]2c3cc(C(=O)OC)ccc3N(C(C)=O)[C@@H](CC)[C@H]2C)nn1 [XT, Methyl-(2S,3R,4S)-4-(4-(2,5,8,11,14,17-hexaoxaicos-19-yn-1-yl)-1H-1,2,3-triazol-1-yl)-1-acetyl-2-ethyl-3-methyl-1,2,3,4-tetrahydroquinoline-6-carboxylate] | ~35000 | 2040 | 17.2
CCCCCc1cn([C@@H]2c3cc(C(=O)OC)ccc3N(C(C)=O)[C@@H](CC)[C@H]2C)nn1 [XF, Methyl (2S,3R,4S)-1-acetyl-2-ethyl-3-methyl-4-(4-pentyl-1H-1,2,3-triazol-1-yl)-1,2,3,4-tetrahydroquinoline-6-carboxylate] | 30000 | 1930 | 15.6
CC[C@H]1[C@@H](C)[C@H](n2cc(COCCOCCOCCOCc3cn(C4c5cc(C(=O)OC)ccc5N(C(C)=O)[C@@H](CC)[C@H]4C)nn3)nn2)c2cc(C(=O)OC)ccc2N1C(C)=O (stereo partly drawn) [XW, Dimethyl-4,4′-((2,5,8,11-tetraoxadodecane-1,12-diyl)bis(1H-1,2,3-triazole-4,1-diyl))(2S,2′S,3R,3′R,4S,4′S)-bis(1-acetyl-2-ethyl-3-methyl-1,2,3,4-tetrahydroquinoline-6-carboxylate)] | 1850 | 95.4 | 19.4
CC[C@@H]1[C@H](C)[C@@H](NC(=O)OC(C)C)c2cc(C(=O)OC)ccc2N1C(C)=O [ent-XJ] | > 100000 | 17700 | 
CC[C@@H]1[C@H](C)[C@@H](n2cc(-c3ccccc3)nn2)c2cc(C(=O)OC)ccc2N1C(C)=O (single isomer, unassigned) [ent-28] | > 100000 | 51400 | 
C#CCOCCOCCOCCOCc1cn([C@H]2c3cc(C(=O)OC)ccc3N(C(C)=O)[C@@H](CC)[C@@H]2C)nn1 [Compound 32, Methyl-(2S,3S,4R)-4-(4-(2,5,8,11-tetraoxatetradec-13-yn-1-yl)-1H-1,2,3-triazol-1-yl)-1-acetyl-2-ethyl-3-methyl-1,2,3,4-tetrahydroquinoline-6-carboxylate] | > 20000 | > 20000 | 
C=CCCCC(=O)Nc1ccc(-c2ccc3c(c2)[C@@H](Nc2ncc(Cl)cn2)[C@H](C)[C@H](CC)N3C(C)=O)cc1 [XK, N-(4-((2S,3S,4S)-1-acetyl-4-((5-chloropyrimidin-2-yl)amino)-2-ethyl-3-methyl-1,2,3,4-tetrahydroquinolin-6-yl)phenyl)hex-5-enamide] | 3140 | 1330 | 2.4
CCCCCc1cn([C@H]2c3cc(C(=O)OC)ccc3N(C(C)=O)[C@H](CC)[C@@H]2C)nn1 [ent-XF] | 6300 | 8330 | 0.8
CC[C@H]1[C@@H](C)[C@H](n2cc(-c3ccccc3)nn2)c2cc(C(=O)OC)ccc2N1C(C)=O [Compound 28, Methyl-(2S,3R,4S)-1-acetyl-2-ethyl-3-methyl-4-(4-phenyl-1H-1,2,3-triazol-1-yl)-1,2,3,4-tetrahydroquinoline-6-carboxylate] | 8310 | 567 | 14.7
CC[C@H]1[C@@H](C)[C@H](Nc2ncc(Cl)cn2)c2cc(C(=O)OC)ccc2N1C(C)=O [XL, Methyl (2S,3S,4S)-1-acetyl-4-((5-chloropyrimidin-2-yl)amino)-2-ethyl-3-methyl-1,2,3,4-tetrahydroquinoline-6-carboxylate] | 10100 | 1130 | 9.0
CC[C@H]1[C@@H](C)[C@H](n2cc(-c3ccc(C(F)(F)F)cc3)nn2)c2cc(C(=O)OC)ccc2N1C(C)=O [XN, Methyl (2S,3R,4S)-1-acetyl-2-ethyl-3-methyl-4-(4-(4-(trifluoromethyl)phenyl)-1H-1,2,3-triazol-1-yl)-1,2,3,4-tetrahydroquinoline-6-carboxylate] | 14500 | 1910 | 7.6
